This note sets out measurements from patent US20090137572A1, “2-substituted-4-heteroaryl-pyrimidines useful for the treatment of proliferative disorders” (priority 2004, published 2009).

SMILES strings stand for the structures.

What all share (type): biochemical
The target of experiment [1] is CDK1-cyclin B (Homo sapiens, UniProt P06493). The experiment can be described thus: Kinase assay (radioactive phosphate incorporation), CDK1-cyclin B. Conditions: read-out: Kinase Inhibition pIC50 CDK1-cyclin B (converted). Here is the method:
(§1) Kinase assays. The compounds of the invention above were investigated for their ability to inhibit the enzymatic activity of various protein kinases (Table 2). This was achieved by measurement of incorporation of radioactive phosphate from ATP into appropriate polypeptide substrates. Recombinant protein kinases and kinase complexes were produced or obtained commercially. Assays were performed using 96-well plates and appropriate assay buffers (typically 25 mM β-glycerophosphate, 20 mM MOPS, 5 mM EGTA, 1 mM DTT, 1 mM […], pH 7.4), into which were added 2-4 μg of active enzyme with appropriate substrates. The reactions were initiated by addition of Mg/ATP mix (15 mM MgCl2+100 μM ATP with 30-50 kBq per well of [γ-^32P]-ATP) and mixtures incubated as required at 30° C. Reactions were stopped on ice, followed by filtration through p81 filterplates or GF/C filterplates (Whatman Polyfiltronics, Kent, UK). After washing 3 times with 75 mM aq orthophosphoric acid, plates were dried, scintillant added and incorporated radioactivity measured in a scintillation counter (TopCount, Packard Instruments, Pangbourne, Berks, UK). Compounds for kinase assay were made up as 10 mM stocks in DMSO and diluted into 10% DMSO in assay buffer.

Experiment [2] addresses CDK2-cyclin A (Homo sapiens, UniProt P24941). Briefly: Kinase assay (radioactive phosphate incorporation), CDK2-cyclin A. Conditions: read-out: Kinase Inhibition pIC50 CDK2-cyclin A (converted). Here is the method: as §1
Experiment [3] deals with CDK4-cyclin D1 (Homo sapiens, UniProt P11802). Briefly: Kinase assay (radioactive phosphate incorporation), CDK4-cyclin D1. The note with it: read-out: Kinase Inhibition pIC50 CDK4-cyclin D1 (converted). The protocol:
as §1

The target of experiment [4] is CDK7/cyclin H (Homo sapiens, UniProt P50613). The experiment can be described thus: CDK 7 assay (CTD peptide substrate). Conditions: read-out: Kinase Inhibition pIC50 CDK7-cyclin H (converted). The procedure, abridged: (§2)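 Radiometric filter-binding read-out: 32P transferred from 100 μM [γ-32P]ATP to biotinyl-(YSPTSPS)4 CTD peptide. Enzyme 0.5-2 μg recombinant human complex; 20 mM MOPS pH 7.2, 15 mM MgCl2, vanadate, DTT; 45 min, 30° C; avidin bound, P81 plate washed, counted.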
Chain of CDK7/cyclin H (P50613 whole entry): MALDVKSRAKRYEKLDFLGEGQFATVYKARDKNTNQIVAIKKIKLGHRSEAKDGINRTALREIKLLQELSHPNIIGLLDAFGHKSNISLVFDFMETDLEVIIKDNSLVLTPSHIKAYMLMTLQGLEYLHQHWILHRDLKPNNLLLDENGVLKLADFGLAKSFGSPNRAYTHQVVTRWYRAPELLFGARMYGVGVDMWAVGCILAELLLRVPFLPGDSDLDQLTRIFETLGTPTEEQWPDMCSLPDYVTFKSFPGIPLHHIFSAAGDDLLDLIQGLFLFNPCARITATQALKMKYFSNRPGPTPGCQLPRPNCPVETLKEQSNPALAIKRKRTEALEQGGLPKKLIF
Chain of CDK7/cyclin H (P51946 whole entry partner): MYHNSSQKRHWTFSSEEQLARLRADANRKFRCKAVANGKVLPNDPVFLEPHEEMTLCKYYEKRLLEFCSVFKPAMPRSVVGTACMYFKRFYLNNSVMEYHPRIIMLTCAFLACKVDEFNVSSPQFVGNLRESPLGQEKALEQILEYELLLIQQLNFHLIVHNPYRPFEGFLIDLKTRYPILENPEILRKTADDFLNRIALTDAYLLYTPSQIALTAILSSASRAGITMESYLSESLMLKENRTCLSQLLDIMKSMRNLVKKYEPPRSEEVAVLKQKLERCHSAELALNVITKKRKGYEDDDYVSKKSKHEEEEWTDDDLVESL

The target in experiment [5] is CDK9/cyclin T1 (Homo sapiens, UniProt P50750). Briefly: CDK 9 assay (CTD peptide substrate). Conditions: read-out: Kinase Inhibition pIC50 CDK9-cyclin T1 (converted). A digest of the protocol:
as §2

Experiment [6] addresses T1, Flt3 (FMS-like tyrosine kinase-3) (Homo sapiens, UniProt P36888).
T1 sequence (P36888 27-993): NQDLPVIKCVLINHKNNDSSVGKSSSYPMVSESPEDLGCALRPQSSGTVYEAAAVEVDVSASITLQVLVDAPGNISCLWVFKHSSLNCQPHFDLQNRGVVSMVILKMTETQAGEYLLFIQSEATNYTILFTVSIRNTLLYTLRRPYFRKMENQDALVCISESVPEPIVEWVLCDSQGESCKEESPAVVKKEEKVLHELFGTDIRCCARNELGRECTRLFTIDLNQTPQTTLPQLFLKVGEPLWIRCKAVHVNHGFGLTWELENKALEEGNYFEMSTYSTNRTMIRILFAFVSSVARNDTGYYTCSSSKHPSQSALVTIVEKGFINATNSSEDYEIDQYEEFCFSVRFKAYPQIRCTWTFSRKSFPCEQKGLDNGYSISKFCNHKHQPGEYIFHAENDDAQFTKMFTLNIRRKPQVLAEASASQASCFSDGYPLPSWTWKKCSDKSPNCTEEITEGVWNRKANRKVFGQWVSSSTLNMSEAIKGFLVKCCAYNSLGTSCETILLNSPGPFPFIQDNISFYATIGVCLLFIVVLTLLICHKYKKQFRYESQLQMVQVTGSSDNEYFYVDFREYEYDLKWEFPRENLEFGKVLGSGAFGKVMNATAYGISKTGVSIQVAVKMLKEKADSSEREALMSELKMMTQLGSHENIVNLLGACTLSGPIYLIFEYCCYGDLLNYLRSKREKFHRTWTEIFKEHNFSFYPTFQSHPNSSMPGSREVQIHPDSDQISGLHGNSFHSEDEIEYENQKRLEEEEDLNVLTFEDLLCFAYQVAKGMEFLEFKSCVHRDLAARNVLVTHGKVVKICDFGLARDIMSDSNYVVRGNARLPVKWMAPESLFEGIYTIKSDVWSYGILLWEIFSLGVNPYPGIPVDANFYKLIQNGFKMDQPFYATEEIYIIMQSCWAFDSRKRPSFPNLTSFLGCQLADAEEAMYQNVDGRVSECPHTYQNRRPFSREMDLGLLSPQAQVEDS
The experiment can be described thus: Kinase assay (radioactive phosphate incorporation), Flt3. Conditions: pIC50 is -log(IC50, M), read-out: Kinase Inhibition pIC50 Flt3 (converted). A digest of the protocol:
(§3)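 Inhibition was measured as transfer of radiolabelled phosphate from [γ-32P]-ATP (100 μM ATP, 15 mM MgCl2) onto polypeptide substrates by recombinant kinases or kinase complexes. Reactions ran at 30° C in MOPS/β-glycerophosphate buffer, pH 7.4, were stopped on ice and filtered before scintillation counting.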

Experiment [7] deals with CDK2-cycline E (Homo sapiens, UniProt P24941). The experiment can be described thus: Kinase assay (radioactive phosphate incorporation), CDK2-cyclin E. The note with it: read-out: Kinase Inhibition pIC50 CDK2-cycline E (converted). A digest of the protocol: as §3
Experiment [8] concerns the target T2, Aurora A kinase (Homo sapiens, UniProt O14965).
T2 construct: purchased
T2 sequence (O14965 1-403): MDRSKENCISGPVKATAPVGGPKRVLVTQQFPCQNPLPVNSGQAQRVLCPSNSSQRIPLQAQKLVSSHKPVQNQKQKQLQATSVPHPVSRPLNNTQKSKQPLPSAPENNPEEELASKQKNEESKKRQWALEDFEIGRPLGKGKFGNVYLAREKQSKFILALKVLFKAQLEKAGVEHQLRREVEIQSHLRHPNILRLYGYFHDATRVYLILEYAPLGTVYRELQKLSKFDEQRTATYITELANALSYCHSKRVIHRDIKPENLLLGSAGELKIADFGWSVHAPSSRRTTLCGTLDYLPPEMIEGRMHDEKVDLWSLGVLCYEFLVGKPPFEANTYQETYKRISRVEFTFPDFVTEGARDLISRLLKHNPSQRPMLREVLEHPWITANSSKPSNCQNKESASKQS
The experiment can be described thus: Aurora-A (human) kinase assay (Kemptide substrate). Conditions: pIC50 is -log(IC50, M); 15 μM ATP; read-out: Kinase Inhibition pIC50 Aurora A kinase (converted). The procedure, abridged: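 Kemptide (LRRASLG, 200 μM) phosphorylation by 5-10 ng commercial aurora-A measured as [γ-33P] incorporation at 15 μM ATP with 10 mM Mg acetate, pH 7.0 MOPS buffer. Reaction ran 40 min at room temperature; acid-stopped, captured on P81 filters, scintillation read.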

Experiment [9] concerns the target GSK3b (Homo sapiens, UniProt P49841). Briefly: Kinase assay (radioactive phosphate incorporation), GSK-3b. The note with it: read-out: Kinase Inhibition pIC50 GSK-3b (converted). Here is the method: as §1

Chain of CDK1-cyclin B (P06493 whole entry): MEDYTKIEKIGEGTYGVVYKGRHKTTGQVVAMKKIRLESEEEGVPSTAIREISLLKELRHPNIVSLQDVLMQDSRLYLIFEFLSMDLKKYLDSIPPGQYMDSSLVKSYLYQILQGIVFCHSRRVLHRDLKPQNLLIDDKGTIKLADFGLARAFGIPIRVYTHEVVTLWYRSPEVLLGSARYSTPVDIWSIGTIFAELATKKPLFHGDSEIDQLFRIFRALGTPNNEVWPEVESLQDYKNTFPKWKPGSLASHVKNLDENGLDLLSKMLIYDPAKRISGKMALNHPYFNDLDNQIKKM
Chain of CDK1-cyclin B (P14635 whole entry partner): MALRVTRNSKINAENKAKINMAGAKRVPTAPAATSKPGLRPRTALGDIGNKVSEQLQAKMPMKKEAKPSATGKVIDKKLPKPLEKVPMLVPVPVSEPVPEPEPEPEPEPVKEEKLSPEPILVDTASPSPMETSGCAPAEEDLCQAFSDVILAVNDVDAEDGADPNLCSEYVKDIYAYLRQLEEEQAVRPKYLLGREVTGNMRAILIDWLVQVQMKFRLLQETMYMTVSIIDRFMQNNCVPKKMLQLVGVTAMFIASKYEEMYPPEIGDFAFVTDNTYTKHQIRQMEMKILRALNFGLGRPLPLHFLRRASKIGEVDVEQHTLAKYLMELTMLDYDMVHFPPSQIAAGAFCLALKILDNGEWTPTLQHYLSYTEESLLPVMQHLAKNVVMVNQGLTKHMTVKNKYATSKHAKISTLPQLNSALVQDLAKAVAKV
Chain of CDK4-cyclin D1 (P11802 whole entry): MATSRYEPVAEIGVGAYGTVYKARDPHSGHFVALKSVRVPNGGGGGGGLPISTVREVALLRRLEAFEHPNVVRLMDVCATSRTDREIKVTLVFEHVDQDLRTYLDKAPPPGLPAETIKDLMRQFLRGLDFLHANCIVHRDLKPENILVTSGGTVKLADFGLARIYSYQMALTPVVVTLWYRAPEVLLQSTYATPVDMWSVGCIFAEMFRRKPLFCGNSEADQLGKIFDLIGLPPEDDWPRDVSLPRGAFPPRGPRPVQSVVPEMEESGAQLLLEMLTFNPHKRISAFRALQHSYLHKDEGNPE
Chain of CDK4-cyclin D1 (P24385 whole entry partner): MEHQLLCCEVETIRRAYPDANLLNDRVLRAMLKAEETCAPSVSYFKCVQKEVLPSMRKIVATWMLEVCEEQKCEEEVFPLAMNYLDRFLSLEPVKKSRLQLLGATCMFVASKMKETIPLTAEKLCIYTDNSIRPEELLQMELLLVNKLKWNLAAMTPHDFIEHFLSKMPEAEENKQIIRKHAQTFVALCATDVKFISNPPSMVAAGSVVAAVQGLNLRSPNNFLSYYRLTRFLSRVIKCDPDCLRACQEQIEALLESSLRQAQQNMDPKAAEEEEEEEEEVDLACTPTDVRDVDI
Chain of CDK9/cyclin T1 (P50750 whole entry): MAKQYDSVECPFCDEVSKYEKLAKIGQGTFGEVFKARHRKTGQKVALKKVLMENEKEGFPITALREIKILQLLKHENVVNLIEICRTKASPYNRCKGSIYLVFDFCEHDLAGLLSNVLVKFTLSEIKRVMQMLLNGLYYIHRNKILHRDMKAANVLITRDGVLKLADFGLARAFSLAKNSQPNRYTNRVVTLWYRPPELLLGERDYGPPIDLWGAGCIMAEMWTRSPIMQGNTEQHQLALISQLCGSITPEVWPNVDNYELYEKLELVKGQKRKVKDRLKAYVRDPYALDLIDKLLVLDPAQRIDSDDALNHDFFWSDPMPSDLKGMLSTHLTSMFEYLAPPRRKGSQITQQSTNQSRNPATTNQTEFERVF
Chain of CDK9/cyclin T1 (O60563 whole entry partner): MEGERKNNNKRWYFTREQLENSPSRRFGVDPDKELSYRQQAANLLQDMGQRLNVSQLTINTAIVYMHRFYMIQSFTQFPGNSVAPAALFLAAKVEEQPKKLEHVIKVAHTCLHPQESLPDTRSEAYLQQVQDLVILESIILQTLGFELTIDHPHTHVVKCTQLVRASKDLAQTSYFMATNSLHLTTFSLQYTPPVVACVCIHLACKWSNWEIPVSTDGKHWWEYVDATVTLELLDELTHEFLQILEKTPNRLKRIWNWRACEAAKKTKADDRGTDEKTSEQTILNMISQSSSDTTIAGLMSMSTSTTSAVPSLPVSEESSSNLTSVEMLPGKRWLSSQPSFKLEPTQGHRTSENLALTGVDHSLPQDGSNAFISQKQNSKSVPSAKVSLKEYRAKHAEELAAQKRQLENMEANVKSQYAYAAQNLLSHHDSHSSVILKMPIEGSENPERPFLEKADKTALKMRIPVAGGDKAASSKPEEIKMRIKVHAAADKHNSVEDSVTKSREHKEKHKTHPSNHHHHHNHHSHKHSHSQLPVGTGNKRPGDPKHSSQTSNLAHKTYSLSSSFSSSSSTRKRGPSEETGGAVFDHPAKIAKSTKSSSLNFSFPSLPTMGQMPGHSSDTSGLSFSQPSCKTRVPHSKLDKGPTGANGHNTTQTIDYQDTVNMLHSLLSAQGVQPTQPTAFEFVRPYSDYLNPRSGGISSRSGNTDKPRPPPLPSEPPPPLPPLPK
Chain of GSK3b (P49841 whole entry, species assumed): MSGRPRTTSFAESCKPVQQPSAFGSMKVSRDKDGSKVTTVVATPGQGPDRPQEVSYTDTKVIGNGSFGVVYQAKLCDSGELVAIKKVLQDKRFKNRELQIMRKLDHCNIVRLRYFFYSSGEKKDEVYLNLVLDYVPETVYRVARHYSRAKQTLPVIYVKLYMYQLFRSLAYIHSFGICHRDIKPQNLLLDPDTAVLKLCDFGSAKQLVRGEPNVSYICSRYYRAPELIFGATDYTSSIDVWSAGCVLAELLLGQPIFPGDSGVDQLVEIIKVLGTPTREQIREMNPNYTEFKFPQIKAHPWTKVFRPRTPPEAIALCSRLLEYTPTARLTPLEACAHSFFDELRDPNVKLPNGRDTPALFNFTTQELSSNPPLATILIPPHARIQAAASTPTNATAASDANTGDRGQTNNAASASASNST

On to `CNc1nc(C)c(-c2ccnc(Nc3cccc(CC(=O)OCCOC)c3)n2)s1` [Compound 44, {3-[4-(4-Methyl-2-methylamino-thiazol-5-yl)-pyrimidin-2-ylamino]-phenyl}-acetic acid 2-methoxy-ethyl ester], for which the IC50 was 2000 nM in experiment [1]; 2000 nM in experiment [2]; 2000 nM in experiment [3]; 3160 nM in experiment [4]; 251 nM in [5]; 63.1 nM in experiment [6].

For the compound `CNc1nc(C)c(-c2ccnc(Nc3cc(CO)cc(CO)c3)n2)s1` [Compound 48, {3-Hydroxymethyl-5-[4-(4-methyl-2-methylamino-thiazol-5-yl)-pyrimidin-2-ylamino]-phenyl}-methanol], the IC50 is 631 nM in experiment [1]; 631 nM in [2]; 251 nM in experiment [7]; 631 nM in experiment [3]; 63.1 nM in experiment [6]; 50.1 nM in [8].

`CCOC(=O)Cc1cccc(NS(=O)(=O)c2ccc(Nc3nccc(-c4sc(NC)nc4C)n3)cc2)c1` [Compound 62, (3-{4-[4-(4-Methyl-2-methylamino-thiazol-5-yl)-pyrimidin-2-ylamino]-benzenesulfonylamino}-phenyl)-acetic acid ethyl ester]: the IC50 in [2] is 3160 nM; in [7], 79.4 nM; in experiment [5], 6310 nM.

Turning to `CCNS(=O)(=O)c1ccc(Nc2nccc(-c3sc(C)nc3C)n2)cc1` [Compound 66, 4-[4-(2,4-Dimethyl-thiazol-5-yl)-pyrimidin-2-ylamino]-N-ethyl-benzenesulfonamide], the results for the IC50 in [2], in experiment [7] and in experiment [8] were 50.1 nM, 63.1 nM and 316 nM, respectively.

On to `CNc1nc(C)c(-c2ccnc(Nc3ccc(S(=O)(=O)NCc4ccccc4)cc3)n2)s1` [Compound 72, N-Benzyl-4-[4-(4-methyl-2-methylamino-thiazol-5-yl)-pyrimidin-2-ylamino]-benzenesulfonamide], for which the IC50 in experiment [1] was 794 nM; in [2], 1260 nM; in [7], 158 nM; in experiment [5], 6310 nM; in experiment [8], 2510 nM.

With `CCNc1nc(C)c(-c2ccnc(Nc3ccc(S(=O)(=O)NCc4ccccc4)cc3)n2)s1` [Compound 71, N-Benzyl-4-[4-(2-ethylamino-4-methyl-thiazol-5-yl)-pyrimidin-2-ylamino]-benzenesulfonamide], the IC50 in [2] was 3160 nM; in experiment [7], 631 nM; in experiment [3] it was 7940 nM; in experiment [5] it was 398 nM.

Take `CCNc1nc(C)c(-c2ccnc(Nc3ccc(CNC(C)=O)cc3)n2)s1` [Compound 13, N-{4-[4-(2-Ethylamino-4-methyl-thiazol-5-yl)-pyrimidin-2-ylamino]-benzyl}-acetamide]: the IC50 is 631 nM in experiment [1]; 126 nM in [2]; 63.1 nM in [3]; 200 nM in [4]; 25.1 nM in [5]; 31.6 nM in experiment [6]. Also, in experiment [8], the IC50 is 15.8 nM.

Turning to `Cc1nc(N)sc1-c1ccnc(Nc2ccc(S(=O)(=O)NCc3ccccc3)cc2)n1` [Compound 73, 4-[4-(2-Amino-4-methyl-thiazol-5-yl)-pyrimidin-2-ylamino]-N-benzyl-benzenesulfonamide], the IC50 in [1] is 100 nM; in experiment [2] it was 39.8 nM; in [7], 12.6 nM; in experiment [4], 1000 nM; in [5], 158 nM; in [8] it was 316 nM.

Turning to `Cc1nc(C)c(-c2ccnc(Nc3ccc(S(=O)(=O)NCc4ccccc4)cc3)n2)s1` [Compound 74, N-Benzyl-4-[4-(2,4-dimethyl-thiazol-5-yl)-pyrimidin-2-ylamino]-benzenesulfonamide], the results for the IC50 in experiment [2], in experiment [7] and in experiment [8] were 2000 nM, 398 nM and 126 nM, respectively.

Consider `Cc1nc(C)c(-c2ccnc(Nc3cccc(CNS(C)(=O)=O)c3)n2)s1` [Compound 49, N-{3-[4-(2,4-Dimethyl-thiazol-5-yl)-pyrimidin-2-ylamino]-benzyl}-methanesulfonamide], for which the IC50 in experiment [1] is 200 nM; in experiment [2] it was 158 nM; in experiment [7], 25.1 nM; in experiment [3] it was 1000 nM; in experiment [5], 316 nM; in experiment [6], 200 nM. Also, the IC50 in experiment [8] was 5.01 nM.

For the compound `CCNc1nc(C)c(-c2ccnc(Nc3ccc(N4CCN(C(C)=O)CC4)cc3)n2)s1` [Compound 58, 1-(4-{4-[4-(2-Ethylamino-4-methyl-thiazol-5-yl)-pyrimidin-2-ylamino]-phenyl}-piperazin-1-yl)-ethanone], the IC50 in experiment [1] was 5010 nM; in [2], 1000 nM; in experiment [7], 631 nM; in [3], 251 nM.

As to `CC(=O)NCc1cccc(Nc2nccc(-c3sc(-c4cccnc4)nc3C)n2)c1` [Compound 101, N-{3-[4-(4-Methyl-2-pyridin-3-yl-thiazol-5-yl)-pyrimidin-2-ylamino]-benzyl}-acetamide], the IC50 in experiment [1] is 3160 nM; in [7], 1260 nM; in [3] it was 3980 nM; in experiment [4] it was 3980 nM; in [5], 5010 nM; in experiment [9], 7940 nM. In addition, the IC50 was 316 nM in experiment [6] and 126 nM in experiment [8].
